Tested on: plasma inosine
Experiment: Plasma inosine after intraperitoneal injection in Lewis Rats (HPLC of plasma extract)
Format: in vivo
Conditions: intraperitoneal injection in aqueous carrier with ten percent DMSO, 30 mg twice per day, versus vehicle controls, plasma taken at specific times after administration
Protocol: A pharmaceutical composition for intraperitoneal injection is prepared for testing the compound (IA). An intraperitoneal injection solution containing the compound of Example 8 is dissolved in an aqueous carrier that contains ten percent DMSO.
The compound (IA) is intraperitoneally injected into Lewis Rats via the test composition of Example 21 to provide 30 mg of the compound (IA), with an injection given twice per day. Controls are used, which receive only the vehicle. At specific times after administration, the animals are sacrificed and plasma samples are prepared. The plasma is extracted with cold 0.5N HClO4 and neutralized with solid NH4 HCO3. After removal of perchlorate salts, the extract is subjected to HPLC on a reversed phase column (Spherisorb ODSI).
Compounds prepared as in Examples 10-20 are each made into a pharmaceutical formulation in accordance with the preparation of Example 21 and the resultant injectable solutions are tested in accordance with the procedure of Example 22.

In the case of `Nc1nc2c(Cc3cccnc3)c[nH]c2c(=O)[nH]1` [compound (IA), 2-amino-7-(3-pyridinylmethyl)-3H,5H-pyrrolo[3,2-d]pyrimidin-4-one], the plasma inosine is reported as “significant increase”.

Reference: patent US4985433A, “2-amino-7-(pyridinylmethyl)-3H,5H-pyrrolo[3,2-d]pyrimidin-4-ones and pharmaceutical uses and compositions containing the same” (BioCryst, Inc., priority 1989, dated 1991)
